The results in this text go back to ChEMBL document CHEMBL5465560, “Selectivity Literature for EUbOPEN Chemogenomic Library” (2024).

Assay [1] addresses Mitogen-activated protein kinase kinase kinase 4 (Homo sapiens) (UniProt Q9Y6R4). The assay can be described thus: Selectivity interaction (Ambit KINOMEscan and KiNATiv profiling in Jurkat cells) EUB0000090b MAP3K4. The format is cell-based. The settings on record: at 1 µM.
Assay [2] deals with T1, Mitogen-activated protein kinase kinase kinase 15 (Homo sapiens) (UniProt Q6ZN16).
T1 sequence (whole entry): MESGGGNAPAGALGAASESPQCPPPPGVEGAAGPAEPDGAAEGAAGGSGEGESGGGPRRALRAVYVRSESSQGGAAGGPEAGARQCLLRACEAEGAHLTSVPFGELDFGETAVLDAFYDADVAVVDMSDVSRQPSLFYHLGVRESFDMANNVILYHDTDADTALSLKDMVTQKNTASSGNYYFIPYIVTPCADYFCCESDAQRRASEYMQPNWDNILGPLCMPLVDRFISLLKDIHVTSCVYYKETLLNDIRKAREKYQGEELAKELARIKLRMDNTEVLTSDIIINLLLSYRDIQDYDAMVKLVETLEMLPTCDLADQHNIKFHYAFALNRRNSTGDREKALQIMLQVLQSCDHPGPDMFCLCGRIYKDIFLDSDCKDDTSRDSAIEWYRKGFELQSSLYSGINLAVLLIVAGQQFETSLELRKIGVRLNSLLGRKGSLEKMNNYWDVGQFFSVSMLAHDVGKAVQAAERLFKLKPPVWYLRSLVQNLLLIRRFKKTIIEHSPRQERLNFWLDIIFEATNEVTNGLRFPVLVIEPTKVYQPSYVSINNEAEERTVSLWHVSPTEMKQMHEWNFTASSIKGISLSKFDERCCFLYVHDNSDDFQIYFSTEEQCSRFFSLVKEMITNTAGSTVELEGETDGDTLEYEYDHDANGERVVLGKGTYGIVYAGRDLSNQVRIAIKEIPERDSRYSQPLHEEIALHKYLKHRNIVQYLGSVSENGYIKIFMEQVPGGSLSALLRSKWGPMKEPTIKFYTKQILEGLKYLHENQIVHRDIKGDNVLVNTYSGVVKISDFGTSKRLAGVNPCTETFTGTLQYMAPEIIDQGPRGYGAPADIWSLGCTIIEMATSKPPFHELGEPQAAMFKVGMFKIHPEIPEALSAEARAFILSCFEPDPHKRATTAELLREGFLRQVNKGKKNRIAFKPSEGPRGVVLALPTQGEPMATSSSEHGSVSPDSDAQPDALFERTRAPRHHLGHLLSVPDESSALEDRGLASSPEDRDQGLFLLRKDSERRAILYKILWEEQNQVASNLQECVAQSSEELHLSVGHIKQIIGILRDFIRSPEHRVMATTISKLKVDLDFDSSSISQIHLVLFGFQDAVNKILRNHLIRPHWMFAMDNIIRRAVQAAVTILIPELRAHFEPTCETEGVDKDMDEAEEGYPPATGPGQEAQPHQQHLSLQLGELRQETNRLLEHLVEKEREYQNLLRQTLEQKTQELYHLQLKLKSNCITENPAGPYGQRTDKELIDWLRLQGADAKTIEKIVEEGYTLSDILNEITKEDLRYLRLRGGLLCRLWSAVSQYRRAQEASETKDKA
The assay can be described thus: Selectivity interaction (KinomeScan (DiscoverX)) EUB0000607a MAP3K15. The note with it: at 10 µM.

Assay [3] concerns the target T2, Serine/threonine-protein kinase ULK3 (Homo sapiens) (UniProt Q6PHR2).
T2 sequence (whole entry): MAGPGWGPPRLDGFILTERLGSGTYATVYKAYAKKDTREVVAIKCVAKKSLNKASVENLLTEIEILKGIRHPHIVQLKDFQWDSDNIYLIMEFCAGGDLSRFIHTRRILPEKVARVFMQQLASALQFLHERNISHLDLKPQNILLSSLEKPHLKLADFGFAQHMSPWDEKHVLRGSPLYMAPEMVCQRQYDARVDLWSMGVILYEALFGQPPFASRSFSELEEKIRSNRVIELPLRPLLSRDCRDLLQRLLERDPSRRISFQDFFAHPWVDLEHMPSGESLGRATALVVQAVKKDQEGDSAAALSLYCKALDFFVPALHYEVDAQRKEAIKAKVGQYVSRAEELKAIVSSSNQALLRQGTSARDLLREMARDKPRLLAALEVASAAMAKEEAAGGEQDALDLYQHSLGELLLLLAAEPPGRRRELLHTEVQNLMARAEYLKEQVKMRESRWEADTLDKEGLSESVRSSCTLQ
The assay can be described thus: Selectivity interaction (ActivX KiNativ screen (kinase selectivity in THP-1 cell lysates)) EUB0000639a ULK3. The format is subcellular. The note with it: lysate.

Assay [4] concerns the target T3, Serine/threonine-protein kinase PLK4 (Homo sapiens) (UniProt O00444).
T3 sequence (whole entry): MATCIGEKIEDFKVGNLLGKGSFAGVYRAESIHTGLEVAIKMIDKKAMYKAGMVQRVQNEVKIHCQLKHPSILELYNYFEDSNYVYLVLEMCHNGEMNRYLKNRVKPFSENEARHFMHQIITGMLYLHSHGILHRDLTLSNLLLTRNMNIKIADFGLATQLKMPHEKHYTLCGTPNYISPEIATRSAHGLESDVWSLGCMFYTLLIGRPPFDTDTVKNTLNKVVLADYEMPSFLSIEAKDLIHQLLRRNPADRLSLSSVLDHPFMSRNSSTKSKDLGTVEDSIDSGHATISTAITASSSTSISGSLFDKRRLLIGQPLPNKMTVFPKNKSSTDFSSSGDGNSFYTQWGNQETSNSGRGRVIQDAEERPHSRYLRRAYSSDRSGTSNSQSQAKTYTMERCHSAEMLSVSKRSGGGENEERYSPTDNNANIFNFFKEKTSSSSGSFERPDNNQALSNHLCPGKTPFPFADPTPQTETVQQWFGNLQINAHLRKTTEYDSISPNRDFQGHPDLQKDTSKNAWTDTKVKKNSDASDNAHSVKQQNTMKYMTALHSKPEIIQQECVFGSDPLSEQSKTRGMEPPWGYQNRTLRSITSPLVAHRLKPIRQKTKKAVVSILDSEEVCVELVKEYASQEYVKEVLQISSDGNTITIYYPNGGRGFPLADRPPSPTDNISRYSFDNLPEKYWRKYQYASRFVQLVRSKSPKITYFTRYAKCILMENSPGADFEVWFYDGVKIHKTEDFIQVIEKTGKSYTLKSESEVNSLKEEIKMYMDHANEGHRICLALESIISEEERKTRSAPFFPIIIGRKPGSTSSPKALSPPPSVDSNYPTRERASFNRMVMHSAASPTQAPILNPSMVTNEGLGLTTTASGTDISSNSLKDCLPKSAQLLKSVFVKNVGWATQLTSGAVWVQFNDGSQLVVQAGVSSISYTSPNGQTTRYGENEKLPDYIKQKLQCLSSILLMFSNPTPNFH
The assay is described as follows: Selectivity interaction (Kinase panel (DSF assay)) EUB0001559a PLK4.

For assay [5], the target named is SRSF protein kinase 3 (Homo sapiens) (UniProt Q9UPE1). The assay can be described thus: Selectivity interaction (Upstate Kinase Profiler service (Millipore)) EUB0000056c SRPK3. The settings on record: at 1 µM.
SRSF protein kinase 3 (Homo sapiens), sequence (Q9UPE1 whole entry): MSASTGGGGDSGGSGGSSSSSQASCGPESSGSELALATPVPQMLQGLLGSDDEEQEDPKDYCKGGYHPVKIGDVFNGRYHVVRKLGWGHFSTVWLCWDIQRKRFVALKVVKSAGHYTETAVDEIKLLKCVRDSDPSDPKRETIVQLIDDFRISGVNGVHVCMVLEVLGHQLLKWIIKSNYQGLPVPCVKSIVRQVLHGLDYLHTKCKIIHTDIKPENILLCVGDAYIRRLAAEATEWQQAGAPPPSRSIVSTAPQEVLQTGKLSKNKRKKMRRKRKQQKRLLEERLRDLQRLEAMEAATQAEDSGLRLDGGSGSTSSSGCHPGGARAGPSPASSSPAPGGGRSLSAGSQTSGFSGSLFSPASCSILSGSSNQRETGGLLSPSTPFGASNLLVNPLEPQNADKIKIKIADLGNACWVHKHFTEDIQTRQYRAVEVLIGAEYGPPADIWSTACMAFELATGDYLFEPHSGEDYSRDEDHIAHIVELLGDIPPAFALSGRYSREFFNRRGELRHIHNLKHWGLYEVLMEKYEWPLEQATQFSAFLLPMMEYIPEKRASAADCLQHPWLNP

Mitogen-activated protein kinase kinase kinase 4 (Homo sapiens), sequence (Q9Y6R4 whole entry): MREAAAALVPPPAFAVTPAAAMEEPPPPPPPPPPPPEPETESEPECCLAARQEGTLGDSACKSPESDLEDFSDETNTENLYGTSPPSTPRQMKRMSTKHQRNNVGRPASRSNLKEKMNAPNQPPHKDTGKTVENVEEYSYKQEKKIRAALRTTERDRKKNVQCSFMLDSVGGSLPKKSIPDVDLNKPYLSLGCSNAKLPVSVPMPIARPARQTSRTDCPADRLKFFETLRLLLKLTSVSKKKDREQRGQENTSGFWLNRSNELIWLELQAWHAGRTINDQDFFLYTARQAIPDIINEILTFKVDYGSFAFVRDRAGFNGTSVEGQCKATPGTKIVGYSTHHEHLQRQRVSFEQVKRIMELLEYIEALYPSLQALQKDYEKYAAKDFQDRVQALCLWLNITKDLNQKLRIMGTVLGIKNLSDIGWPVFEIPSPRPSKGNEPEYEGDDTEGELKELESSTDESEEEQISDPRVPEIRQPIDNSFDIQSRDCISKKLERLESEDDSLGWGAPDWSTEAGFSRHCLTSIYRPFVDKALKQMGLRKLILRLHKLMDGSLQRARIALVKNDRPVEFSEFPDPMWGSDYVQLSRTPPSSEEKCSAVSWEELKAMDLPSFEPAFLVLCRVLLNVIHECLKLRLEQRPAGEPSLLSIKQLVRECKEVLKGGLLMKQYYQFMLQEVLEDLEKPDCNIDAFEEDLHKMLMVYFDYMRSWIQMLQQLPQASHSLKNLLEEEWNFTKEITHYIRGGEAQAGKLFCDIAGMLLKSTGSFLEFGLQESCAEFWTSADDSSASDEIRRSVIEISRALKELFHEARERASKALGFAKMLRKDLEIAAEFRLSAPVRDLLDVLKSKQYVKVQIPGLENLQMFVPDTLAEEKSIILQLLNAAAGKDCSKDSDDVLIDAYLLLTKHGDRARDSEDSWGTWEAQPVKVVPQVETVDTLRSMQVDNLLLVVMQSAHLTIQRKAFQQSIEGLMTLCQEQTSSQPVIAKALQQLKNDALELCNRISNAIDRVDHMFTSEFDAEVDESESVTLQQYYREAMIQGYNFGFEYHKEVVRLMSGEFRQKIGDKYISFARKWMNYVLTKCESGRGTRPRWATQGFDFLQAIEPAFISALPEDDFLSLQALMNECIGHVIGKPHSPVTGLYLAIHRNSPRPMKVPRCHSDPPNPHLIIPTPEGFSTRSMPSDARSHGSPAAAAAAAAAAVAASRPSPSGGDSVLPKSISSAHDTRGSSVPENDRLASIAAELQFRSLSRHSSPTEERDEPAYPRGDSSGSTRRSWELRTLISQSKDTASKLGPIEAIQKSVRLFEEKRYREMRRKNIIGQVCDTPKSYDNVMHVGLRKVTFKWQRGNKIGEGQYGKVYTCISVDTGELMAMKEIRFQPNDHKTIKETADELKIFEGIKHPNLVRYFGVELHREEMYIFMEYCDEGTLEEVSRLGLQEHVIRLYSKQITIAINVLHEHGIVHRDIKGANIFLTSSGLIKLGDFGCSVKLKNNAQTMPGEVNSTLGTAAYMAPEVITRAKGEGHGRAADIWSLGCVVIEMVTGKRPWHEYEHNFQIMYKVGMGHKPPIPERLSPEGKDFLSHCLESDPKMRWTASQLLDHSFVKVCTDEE

Consider `CN(C)C/C=C/C(=O)Nc1ccc(C(=O)N2CCCC(Nc3ncc(Cl)c(-c4c[nH]c5ccccc45)n3)C2)cc1` (centres undefined), for which, in assay [1], the % of control was determined as 64%.
In assay [2], `CNC(=O)Nc1ccc(-c2nc(N3CC4CCC(C3)O4)c3cnn(C4CCC5(CC4)OCCO5)c3n2)cc1` had a % of control of 100%.
For `CC[C@@H]1[C@H](F)C(=O)N[C@@H]1COc1nccc2cc(C(N)=O)c(OC)cc12` [ZIMLOVISERTIB], the % of inhibition is 11.3% in assay [3] (at 0.01 µM); 2.1% in assay [3] (at 0.04 µM); 3.4% in assay [3] (at 0.2 µM); 5.1% in assay [3] (at 1 µM); -3.4% in assay [3] (at 5 µM).
`CN(C(=O)c1cnn2cccnc12)c1cc2c(cc1N1CCOCC1)C(=O)N(C[C@@H](F)C(C)(C)O)C2` yielded a dTM in assay [4] of -0.4 K.
As to `Cc1ccc(-c2ccc3c(ccc4sc5c(c43)NC[C@@H](C)NC5=O)n2)cn1`, the % of inhibition in assay [5] stood at 36%.
